Source: patent publication US20250009891A1, “CONJUGATES OF MONOCYCLIC BETA-LACTAMS AND SIDEROPHORE MIMETICS” (UNIVERSITY OF NOTRE DAME DU LAC, priority 2021, published 2025)
In brackets after ≈: the same amount, converted by molar mass. Like-named read-outs stand apart in the source and are kept apart here.

Tests used:
[1] = test system: S. aureus SG511; test: In vitro antibacterial assay (MIC); assay type: cell-based; details: iron deficient media, duplicate assays
Procedure: (§1) Antibacterial assay results of new aztreonam derivatives (27, 30, 32 and 37), aztreonam (9a) and earlier data of conjugate 23 are shown in Table 1. The assays were performed using iron deficient media appropriate for screening siderophore conjugates as described previously. […] As expected, none of the compounds were active against the Gram-positive S. aureus. […] Of special interest is the significant inhibitory activity against problematic strains of A. baumannii and P. aeruginosa, including cephalosporinase and carbapenemase producers (A. baumannii TCC 17978 pNT320 and ATCC 17978 pNT165, respectively) which are on the World Health Organization (WHO) list of multi-drug resistant (MDR) pathogens of greatest concern.

[2] = test system: B. dolosa AU0018; test: In vitro antibacterial assay (MIC); assay type: cell-based
Procedure: as §1

[3] = test system: P. mirabilis X235; test: In vitro antibacterial assay (MIC); assay type: cell-based; details: iron deficient media, duplicate assays
Procedure: as §1

[4] = test system: E. aerogenes X816; test: In vitro antibacterial assay (MIC); assay type: cell-based; details: iron deficient media, duplicate assays
Procedure: as §1

[5] = test system: K. pneumoniae ATCC 8303 X68; test: In vitro antibacterial assay (MIC); assay type: cell-based; details: duplicate assays
Procedure: as §1

[6] = test system: C. freundii ATCC 19063; test: In vitro antibacterial assay (MIC); assay type: cell-based; details: iron deficient media, duplicate assays
Procedure: as §1

[7] = test system: A. baumannii ATCC BAA 1797; test: In vitro antibacterial assay (MIC); assay type: cell-based, Acinetobacter baumannii; details: duplicate assays
Procedure: as §1

[8] = test system: A. baumannii ATCC 17978 pNT320 (cephalosporinase producing strain); test: In vitro antibacterial assay (MIC); assay type: cell-based, Acinetobacter baumannii; details: iron deficient media, duplicate assays
Procedure: as §1

[9] = test system: A. baumannii ATCC 17961; test: In vitro antibacterial assay (MIC); assay type: cell-based, Acinetobacter baumannii; details: duplicate assays
Procedure: as §1

[10] = test system: Gram-negative bacteria; test: Antibacterial activity, summary statements; assay type: cell-based; details: in words; for activity against Gram-negative bacteria that are resistant to aztreonam: iron deficient media
Procedure: as §1

[11] = test system: P. aeruginosa KW799/wt; test: In vitro antibacterial assay (MIC); assay type: cell-based, Pseudomonas aeruginosa; details: iron deficient media, duplicate assays
Procedure: as §1

[12] = test system: P. aeruginosa ARC 3502; test: In vitro antibacterial assay (MIC); assay type: cell-based, Pseudomonas aeruginosa; details: iron deficient media, duplicate assays
Procedure: as §1

[13] = test system: P. aeruginosa ISR14-004; test: In vitro antibacterial assay (MIC); assay type: cell-based, Pseudomonas aeruginosa; details: iron deficient media, duplicate assays
Procedure: as §1

[14] = test system: P. aeruginosa ISR14-003; test: In vitro antibacterial assay (MIC); assay type: cell-based, Pseudomonas aeruginosa; details: iron deficient media, duplicate assays
Procedure: as §1

[15] = test system: E. coli DCO; test: In vitro antibacterial assay (MIC); assay type: cell-based, Escherichia coli; details: iron deficient media, duplicate assays
Procedure: as §1

[16] = test system: P. aeruginosa 01; test: In vitro antibacterial assay (MIC); assay type: cell-based, Pseudomonas aeruginosa; details: iron deficient media, duplicate assays
Procedure: as §1

[17] = test system: Gram-negative bacteria; details: in words, cited from earlier work
[18] = test system: A. baumannii ATCC 17978 pNT165 (carbapenemase producing strain); test: In vitro antibacterial assay (MIC); assay type: cell-based, Acinetobacter baumannii; details: iron deficient media, duplicate assays
Procedure: as §1

[19] = A. baumannii ATCC 17978 pNT320, cephalosporinase producing
[20] = Proteus mirabilis, X235, P. mirabilis X235
[21] = Klebsiella aerogenes, X816, E. aerogenes X816
[22] = Klebsiella pneumoniae, ATCC8303, iron deficient media
[23] = Citrobacter freundii, ATCC19063, C. freundii ATCC 19063
[24] = Acinetobacter baumannii, BAA1797, iron deficient media
[25] = Acinetobacter baumannii, ATCC17978, A. baumannii ATCC 17978 pNT320, cephalosporinase producing
[26] = Acinetobacter baumannii, ATCC17961, iron deficient media
[27] = Pseudomonas aeruginosa, KW799/WT
[28] = Pseudomonas aeruginosa, 01, P. aeruginosa 01
[29] = Pseudomonas aeruginosa, ISR14003, P. aeruginosa ISR14-003, read-out: MIC
[30] = Acinetobacter baumannii, ATCC17978, A. baumannii ATCC 17978 pNT165, carbapenemase producing
[31] = Pseudomonas aeruginosa, ARC3502, P. aeruginosa ARC 3502, read-out: MIC
[32] = P. aeruginosa ISR14-004, read-out: MIC
[33] = Pseudomonas aeruginosa, ISR14004, P. aeruginosa ISR14-004, read-out: MIC

Row | SMILES | MIC ([4]; E. aerogenes X816) [µM] | MIC [8, 19] [µM] | MIC [11] [µM] | MIC ([1]; Staphylococcus aureus) [µM] | MIC ([2]; Burkholderia dolosa, AU0018) [µM] | MIC [3, 20] [µM] | MIC [4, 21] [µM] | MIC [5, 22] [µM] | MIC [6, 23] [µM] | MIC [7, 24] [µM] | MIC [8, 25] [µM] | MIC [9, 26] [µM] | activity compared to bis-catechol conjugate 23 [10] | activity against Gram-negative bacteria that are resistant to aztreonam [10] | MIC [11, 27] [µM] | MIC [16, 28] [µM] | MIC [14, 29] [µM] | MIC ([15]; Escherichia coli) [µM] | MIC [18, 30] [µM] | MIC [12, 31] [µM] | other results
1 | CCN(C(C)C)C(C)C.C[C@H]1[C@H](NC(=O)/C(=N\OC(C)(C)C(=O)NOCC(=O)O)c2csc(N)n2)C(=O)N1S(=O)(=O)O [Compound 32, (Z)-2-(2-Aminothiazol-4-yl)-5,5-dimethyl-1-(((2S,3S)-2-methyl-4-oxo-1-sulfoazetidin-3-yl)amino)-1,6-dioxo-4,8-dioxa-3,7-diazadec-2-en-10-oic acid DIPEA salt] | 3 | >25 | 25 |  |  |  |  |  |  |  |  |  |  |  |  |  |  |  |  |  | MIC [1]: >25 µM; MIC ([2]; B. dolosa AU0018, iron deficient media, duplicate assays): >25/(>25) μM; MIC ([3]; P. mirabilis X235): 0.05 µM; MIC ([5]; iron deficient media): 0.8 µM; MIC ([6]; C. freundii ATCC 19063): 3 µM; MIC ([7]; iron deficient media): >25 µM; MIC ([9]; iron deficient media): >25 µM; activity compared to aztreonam (9a) [10]: activity comparable to that of aztreonam; MIC ([12]; P. aeruginosa ARC 3502): >25/(>25) μM; MIC ([13]; P. aeruginosa ISR14-004): >25/(25) μM; MIC ([14]; P. aeruginosa ISR14-003): >25/(>25) μM; MIC [15]: 1.6 µM
2 | C[C@H]1[C@H](NC(=O)/C(=N\OC(C)(C)C(=O)NOCC(=O)NCCNC(=O)CN(CCCCNC(=O)c2cccc(O)c2O)C(=O)c2cccc(O)c2O)c2csc(N)n2)C(=O)N1S(=O)(=O)O [Compound 30, (2S,3S)-3-((Z)-22-(2-Aminothiazol-4-yl)-7-(2,3-dihydroxybenzoyl)-1-(2,3-dihydroxyphenyl)-19,19-dimethyl-1,9,14,18-tetraoxo-16,20-dioxa-2,7,10,13,17,21-hexaazatricos-21-en-23-amido)-2-methyl-4-oxoazetidine-1-sulfonic acid] |  | 1.6 (≈ 1.52 µg/mL) | 0.4 (≈ 0.38 µg/mL) | > 25 | > 25 | < 0.013 | 0.05 (≈ 0.0475 µg/mL) | 0.05 (≈ 0.0475 µg/mL) | 0.4 (≈ 0.38 µg/mL) | 1.6 (≈ 1.52 µg/mL) | 3 (≈ 2.85 µg/mL) | 0.8 (≈ 0.761 µg/mL) | comparable to or better than | notably and unexpectedly active | 0.8 (≈ 0.761 µg/mL) | 0.8 (≈ 0.761 µg/mL) | 0.8 (≈ 0.761 µg/mL) | 0.025 (≈ 0.0238 µg/mL) |  |  | MIC ([16]; P. aeruginosa 01): 0.4 µM (≈ 0.38 µg/mL)
3 | CC1(C)[C@H](NC(=O)/C(=N\OCc2cc(=O)c(O)cn2O)c2csc(N)n2)C(=O)N1OS(=O)(=O)O [BAL 30072] |  |  |  |  |  |  |  |  |  |  |  |  |  |  |  |  |  |  |  |  | in vitro activity ([17]; compounds without free carboxylic acids): retained potent in vitro activity
4 | C[C@H]1[C@H](NC(=O)/C(=N\OC(C)(C)C(=O)NCCNC(=O)CN(CCCCNC(=O)c2cccc(O)c2O)C(=O)c2cccc(O)c2O)c2csc(N)n2)C(=O)N1S(=O)(=O)O [Compound 27, (2S,3S)-3-((Z)-18-(2-Aminothiazol-4-yl)-7-(2,3-dihydroxybenzoyl)-1-(2,3-dihydroxy-phenyl)-15,15-dimethyl-1,9,14-trioxo-16-oxa-2,7,10,13,17-pentaazanonadec-17-en-19-amido)-2-methyl-4-oxoazetidine-1-sulfonic acid] |  | 0.8 (≈ 0.702 µg/mL) |  | > 25 | > 25 | < 0.013 | 0.05 (≈ 0.0439 µg/mL) | 0.05 (≈ 0.0439 µg/mL) | 0.4 (≈ 0.351 µg/mL) | 3 (≈ 2.63 µg/mL) | 1.6 (≈ 1.4 µg/mL) | 0.8 (≈ 0.702 µg/mL) | comparable to or better than | notably and unexpectedly active |  | 0.8 (≈ 0.702 µg/mL) | 0.8 (≈ 0.702 µg/mL) | 0.025 (≈ 0.0219 µg/mL) | 6 (≈ 5.27 µg/mL) | 0.8 (≈ 0.702 µg/mL) | MIC ([18]; A. baumannii ATCC 17978 pNT165, carbapenemase producing): 6.25 µM (≈ 5.49 µg/mL); MIC ([12]; P. aeruginosa ARC 3502, read-out: MIC): 1.6 µM (≈ 1.4 µg/mL); MIC ([16]; P. aeruginosa 01): 0.6 µM (≈ 0.527 µg/mL); MIC [13, 32]: 0.2 µM (≈ 0.176 µg/mL); MIC [13, 33]: 0.4 µM (≈ 0.351 µg/mL); MIC ([14]; P. aeruginosa ISR14-003, read-out: MIC): 0.4 µM (≈ 0.351 µg/mL)
5 | C[C@H]1[C@H](NC(=O)/C(=N\OC(C)(C)C(=O)NCCNC(=O)CN(CCCCNC(=O)c2ccc(O)c(O)c2Cl)C(=O)c2ccc(O)c(O)c2Cl)c2csc(N)n2)C(=O)N1S(=O)(=O)O [Compound 37] |  |  |  |  |  | < 0.025 | 0.8 (≈ 0.757 µg/mL) | 0.2 (≈ 0.189 µg/mL) | < 0.025 | 0.8 (≈ 0.757 µg/mL) | 0.4 (≈ 0.379 µg/mL) | 0.8 (≈ 0.757 µg/mL) | comparable to or better than | notably and unexpectedly active | 0.2 (≈ 0.189 µg/mL) | 1.2 (≈ 1.14 µg/mL) | 0.4 (≈ 0.379 µg/mL) | 0.4 (≈ 0.379 µg/mL) | 25 (≈ 23.7 µg/mL) | 4.5 (≈ 4.26 µg/mL) | MIC [13, 33]: 0.2 µM (≈ 0.189 µg/mL)
6 | C[C@H]1[C@H](NC(=O)/C(=N\OC(C)(C)C(=O)O)c2csc(N)n2)C(=O)N1S(=O)(=O)O [Aztreonam 9a, aztreonam, reference compound] | 0.8 (≈ 0.348 µg/mL) |  | 3 (≈ 1.31 µg/mL) | > 25 |  |  | 1.6 (≈ 0.697 µg/mL) | 0.2 (≈ 0.0871 µg/mL) |  | > 25 | > 25 | > 25 |  |  |  |  |  |  | > 25 | > 25 | MIC ([2]; Burkholderia dolosa, B. dolosa AU0018, iron deficient media, duplicate assays, read-out: MIC): > 25 µM; activity against problematic Gram-negative bacteria ([17]; including carbapenemase and cephalosporinase producing strains of P. aeruginosa and A. baumannii): not active; MIC [13, 32]: 6 µM (≈ 2.61 µg/mL)
